Experimental data reported in patent US12636238B2, “Hypochlorous acid-based eyelid cleansers” (OCuSOFT, Inc., priority 2023, dated 2026).
Where two headings read alike, the source gives them in different places. Blank lines part the entries; values can stand above or below the molecule they belong to.

Assay: comparative stability of hypochlorous acid in the presence of various ingredients (free available chlorine, FAC)
Assay type: physicochemical
Excerpt: Free available chlorine or free active chlorine (FAC) refers to the amount of chlorine that is available to disinfect or kill microorganisms. Importantly, FAC covers many forms of chlorine, such as hypochlorous acid and hypohalite anion, in addition to freely available chlorine. Measurement and quantification of FAC is typically accomplished by a titration or colorimetric method. In certain embodiments, the eyelid cleanser composition contains 10 to 300 ppm of free available chlorine (FAC).
Table 1 illustrates the comparative stability of hypochlorous acid in the presence of various ingredients. The inventors determined that only specific ingredients disclosed in the disclosed embodiments are compatible with hypochlorous acid. For example, after 7 days in solution with sodium laureth sulfate, the FAC concentration decreased by about 4% per day.

[1] = component tested at 0.50%, start
[2] = component tested at 0.5%^, start
[3] = FAC, component 0.01 M, time 2 days
[4] = component tested at 0.01 M in hypochlorous acid solution, start

Molecule: CCCCCCCCOC(=O)CC(C(=O)OCCCCCCCC)S(=O)(=O)O.[Na] (centres unmarked) [Dioctyl Sulfosuccinate Sodium]
% change/day (FAC, component 0.50%, time 10 days): −6%
% change/day (FAC, component 0.5%^, time 38 days): −1%
FAC End (component 0.50%, time 10 days): 113 ppm
FAC End (component 0.5%^, time 38 days): 194 ppm
FAC Start [1]: 289 ppm
FAC Start [2]: 289 ppm

Molecule: CC(=O)[O-].[Na+] [Sodium Acetate]
% change/day: 2%
FAC End: 377 ppm
FAC Start: 362.1 ppm

Molecule: O=C(O)CC(O)(CC(=O)O)C(=O)O [Citric Acid]
% change/day [3]: −49%
FAC End (component 0.01 M, time 2 days): 5.1 ppm
FAC Start [4]: 188.9 ppm

Molecule: O=P([O-])([O-])O.[Na+].[Na+] [Sodium Dibasic Phosphate]
% change/day [3]: 16%
FAC End (component 0.01 M, time 2 days): 331.1 ppm
FAC Start [4]: 250 ppm

Molecule: O=C([O-])CC(O)(CC(=O)[O-])C(=O)[O-].[Na+].[Na+].[Na+] [Sodium Citrate]
% change/day [3]: −49%
FAC End (component 0.01 M, time 2 days): 2.6 ppm
FAC Start [4]: 125.1 ppm

Molecule: CC(O)CO (centres unmarked) [Propylene Glycol]
% change/day (FAC, component 1%, time 3 days): −11%
FAC End (component 1%, time 3 days): 67 ppm
FAC Start (component tested at 1%, start): 99 ppm

Molecule: CC(=O)O [Acetic Acid]
% change/day [3]: 2%
FAC End (component 0.01 M, time 2 days): 384.6 ppm
FAC Start [4]: 367.5 ppm

Now from value to molecule:

% change/day (FAC, component 0.50%, time 2 days): −16%
FAC End (component 0.50%, time 2 days): 264.9 ppm
FAC Start [1]: 391 ppm
Molecule: Polysorbate 20

% change/day (FAC, component 1%, time 3 days): −26%
FAC End (component 1%, time 3 days): 23 ppm
FAC Start (component tested at 1%, start): 101 ppm
Molecule: CC(C)(CO)C(O)C(=O)NCCCO (centres unmarked) [DI-Panthenol]

% change/day (FAC, component 1%, time 3 days): −17%
FAC End (component 1%, time 3 days): 50 ppm
FAC Start (component tested at 1%, start): 102 ppm
Molecule: OCC(O)CO [Glycerin]

% change/day [3]: 2%
FAC End (component 0.01 M, time 2 days): 374.4 ppm
FAC Start [4]: 361.4 ppm
Molecule: O=P([O-])(O)O.[Na+] [Sodium Monobasic Phosphate]

% change/day (FAC, component 0.5%^, time 238 days): 0%
FAC End (component 0.5%^, time 238 days): 11 ppm
FAC Start [2]: 267 ppm
Molecule: CCCCCCCCCCCCOS(=O)(=O)[O-].[Na+] [Sodium Lauryl Sulfate]

% change/day (FAC, component 1%, time 3 days): −100%
FAC End (component 1%, time 3 days): 0 ppm
FAC Start (component tested at 1%, start): 3 ppm
degradation of hypochlorous acid (observation) (in the presence of the component): immediate degradation
Molecule: CCCCCCCCCCO[C@@H]1O[C@H](CO)[C@@H](O)[C@H](O)[C@H]1O [Decyl Glucoside]

% change/day (FAC, component 0.5%^, time 7 days): −4%
FAC concentration decrease (after 7 days in solution): about 4 % per day
FAC End (component 0.5%^, time 7 days): 208 ppm
FAC Start [2]: 287 ppm
Molecule: Sodium Laureth Sulfate
